Read-outs that look alike come from different tables or passages of the source.
Tests used:
[1] = molecular target: VIM-1 (Pseudomonas aeruginosa (strain ATCC 15692 / DSM 22644 / CIP 104116 / JCM 14847 / LMG 12228 / 1C / PRS 101 / PAO1), UniProt A0A0F7KYQ8); experiment: biochemical; details: CCF2-FA substrate, 30 pM enzyme, 2 hours at 25° C.
Method in brief: (§1)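 Class B activity is measured in the presence of compound by fluorescence with CCF2-FA after a 2-hour incubation at 25° C. IC50 is taken from a 4-parameter fit of semi-logarithmic dose-response data.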

[2] = test system: Pseudomonas aeruginosa efflux+ (MB9798), IMP-1; type: cell-based; parameters: Concentration of metallo-β-lactamase inhibitor which restores susceptibility of efflux + (MB9798) strain to imipenem: unit not given here; details: efflux+ MB9798; imipenem at 2 μg/mL; in the presence of a class A, C, D serine β-lactamase inhibitor closely related to relebactam
Method in brief: (§2)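 Microbroth MIC tests in PAO1-background strains with fixed imipenem and/or ceftazidime, usually at the CLSI breakpoint, plus fixed class A/C β-lactamase inhibitor against AmpC. MBL inhibitor titrated; concentration restoring susceptibility recorded and compared as fold difference between efflux+ MB9798 and efflux− MB9799.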

[3] = test system: Pseudomonas aeruginosa MB9798 vs MB9799; details: fold difference between efflux+ (MB9798) and efflux− (MB9799) strains; imipenem at 2 μg/mL
Method in brief: as §2

[4] = molecular target: IMP-1 (Serratia marcescens, UniProt P52699); experiment: biochemical; type: biochemical; details: fluorescence assay, CCF2-FA substrate, 2 pM enzyme, 2 hours at 25° C.; read-out: IMP-1 IC50
Method in brief: as §1

[5] = molecular target: NDM-1 (Klebsiella pneumoniae, UniProt C7C422); experiment: biochemical; type: biochemical; details: fluorescence assay, CCF2-FA substrate, 1 pM enzyme, 2 hours at 25° C.; read-out: NDM-1 IC50
Method in brief: as §1

[6] = test system: Serratia marcescens expressing IMP-1 (CL5741); type: cell-based; details: IMP-1 strain CL5741, with imipenem 1 μg/ml, 95% inhibition of growth
Method in brief: (§3)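 Clinical strains grown overnight on blood agar at 35°C, colonies suspended in saline, diluted 1:100 into 1.1×CAMHB. Test compound titrated with imipenem at 1 μg/ml; incubated 22–24 h at 35°C, growth read by absorbance.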

[7] = test system: Klebsiella pneumoniae expressing VIM-1 (IHMA599644); type: cell-based; details: VIM-1 strain IHMA599644, with imipenem 1 μg/ml, 95% inhibition of growth
Method in brief: as §3

[8] = test system: Escherichia coli expressing NDM-1 (CLB30005, CLB30016); type: cell-based; details: NDM-1 strain, with imipenem 1 μg/ml, 95% inhibition of growth
Method in brief: as §3

[9] = test system: Pseudomonas aeruginosa efflux− (MB9799), IMP-1; type: cell-based; details: efflux− MB9799; imipenem at 2 μg/mL; in the presence of a class A, C, D serine β-lactamase inhibitor closely related to relebactam
Method in brief: as §2

[10] = fluorescence assay, read-out: VIM-1 IC50

NDM-1, sequence (C7C422 whole entry, looked up, species assumed): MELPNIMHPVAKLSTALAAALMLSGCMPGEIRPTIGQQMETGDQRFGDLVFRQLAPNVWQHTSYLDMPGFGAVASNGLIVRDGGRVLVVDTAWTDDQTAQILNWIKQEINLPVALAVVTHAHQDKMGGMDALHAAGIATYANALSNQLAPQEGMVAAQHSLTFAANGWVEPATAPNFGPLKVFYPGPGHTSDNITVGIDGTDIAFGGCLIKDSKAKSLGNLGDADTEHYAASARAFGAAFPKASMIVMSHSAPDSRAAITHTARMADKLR
IMP-1, sequence (P52699 whole entry, looked up, species assumed): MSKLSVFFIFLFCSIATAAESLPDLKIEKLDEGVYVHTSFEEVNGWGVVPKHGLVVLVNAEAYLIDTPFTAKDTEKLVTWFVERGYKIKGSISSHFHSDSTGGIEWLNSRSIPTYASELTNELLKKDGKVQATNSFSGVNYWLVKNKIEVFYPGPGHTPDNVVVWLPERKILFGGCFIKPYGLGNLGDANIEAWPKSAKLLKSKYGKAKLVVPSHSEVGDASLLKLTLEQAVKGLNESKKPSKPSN

Structure (SMILES)	IC50 [1, 10] [nM]	Concentration of metallo-β-lactamase inhibitor which restores susceptibility of efflux + (MB9798) strain to imipenem [2]	Efflux ratio [3]	IC50 [4] [nM]	IC50 [5] [nM]	Serratia marcescens MITC95 [6] [µM]	Klebsiella pneumoniae MITC95 [7] [µM]	Escherichia coli MITC95 [8] [µM]	Concentration of metallo-β-lactamase inhibitor which restores susceptibility of efflux − (MB9799) strain to imipenem [9]	IC50 ([1]; VIM-1 IC50, fluorescence assay) [nM]
NC[C@@H](N)CNS(=O)(=O)c1ccc(-c2ccc(N)nc2)c(-c2nn[nH]n2)c1S(N)(=O)=O [Example 416]	0.68	3.125	1.00	1.34	0.917	1.563	6.25	0.3906	3.125	–
NC[C@H](O)CNS(=O)(=O)c1ccc(-c2ccc3nccn3c2)c(-c2nn[nH]n2)c1S(N)(=O)=O [Example 418]	0.113	1.563	2.00	0.834	0.152	0.7813	1.563	0.3906	0.7813	–
NC[C@@H](O)CNS(=O)(=O)c1ccc(-c2ccc3nccn3c2)c(-c2nn[nH]n2)c1S(N)(=O)=O [Example 420]	0.125	1.563	2.00	0.974	0.23	1.563	3.125	0.3906	0.7813	–
C[C@@H](N)CNS(=O)(=O)c1ccc(-c2ccc3nccn3c2)c(-c2nn[nH]n2)c1S(N)(=O)=O [Example 423]	–	3.125	4.00	1.15	0.303	0.7813	1.563	0.3906	0.7813	0.18
Nc1nc2c(-c3ccc(S(=O)(=O)N[C@@H]4CNC[C@H]4N)c(S(N)(=O)=O)c3-c3nn[nH]n3)cccc2[nH]1 [Example 424]	–	1.563	1.00	0.814	0.0869	1.563	1.563	0.7813	1.563	0.301
NC[C@@H]1C[C@@H](NS(=O)(=O)c2ccc(-c3cccc4[nH]c(N)nc34)c(-c3nn[nH]n3)c2S(N)(=O)=O)CN1 [Example 425, 4-(2-amino-1H-benzo[d]imidazol-4-yl)-N^1-((3R,5S)-5-(aminomethyl)pyrrolidin-3-yl)-3-(2H-tetrazol-5-yl)benzene-1,2-disulfonamide]	0.16	1.563	1.00	0.886	0.0419	3.125	3.125	0.7813	1.563	–
NC[C@@H](CO)NS(=O)(=O)c1ccc(-c2cccc3[nH]c(N)nc23)c(-c2nnn[nH]2)c1S(N)(=O)=O [Example 426, (S)-4-(2-Amino-1H-benzo[d]imidazol-4-yl)-N^1-(1-amino-3-hydroxypropan-2-yl)-3-(1H-tetrazol-5-yl)benzene-1,2-disulfonamide]	0.168	0.3906	0.50	0.273	0.0322	0.7813	1.563	0.3906	0.7813	–
NC[C@H](CO)NS(=O)(=O)c1ccc(-c2cccc3nc(N)[nH]c23)c(-c2nn[nH]n2)c1S(N)(=O)=O [Example 427]	0.547	0.7813	1.00	2.61	0.221	0.7813	1.563	0.3906	0.7813	–

Reference: US10221163B2 (priority 2015, dated 2019)
